From US12077503B2, “Substituted cyclic amides and their use as herbicides” (FMC CORPORATION, priority 2015, dated 2024)

What was measured:
Type in all cases: in vivo
[1] = system: ragweed (common ragweed, Ambrosia elatior); experiment: Test A preemergence; settings: Ambrosia artemisiifolia, pre-emergence, 240 h, preemergence, read-out: Ragweed plant response rating; for pest or weed control at 125 g/ha: 125 g ai/ha, 0 to 100 scale where 0 is no effect and 100 is complete control, approx. 10 d; for pest or weed control at 500 g/ha: 500 g ai/ha, visual injury rating about 10 d after treatment, 0 to 100 scale (0 no effect, 100 complete control)
How it was run: (§1)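 Preemergence directed soil spray on seeded pots, or postemergence application to plants 2–10 cm, one- to two-leaf. Solvent mixture non-phytotoxic, with surfactant. Scored ~10 d later, visually, 0–100 vs untreated.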

[2] = system: Galium (catchweed bedstraw, Galium aparine); experiment: Test A postemergence; settings: Galium, post-emergence, 240 h, postemergence, read-out: Galium plant response rating; for pest or weed control at 125 g/ha: 125 g ai/ha, visual injury on 0 to 100 scale (0 no effect, 100 complete control), approx. 10 d; for pest or weed control at 500 g/ha: 500 g ai/ha, 0 to 100 scale, 0 is no effect, 100 is complete control
How it was run: as §1

Kochia (Kochia scoparia) = experiment: Test A postemergence; settings: Bassia scoparia, post-emergence, 240 h, postemergence, read-out: Kochia plant response rating; for pest or weed control at 125 g/ha: 125 g ai/ha, visual injury on 0 to 100 scale (0 no effect, 100 complete control), approx. 10 d; for pest or weed control at 500 g/ha: 500 g ai/ha, 0 to 100 scale, 0 is no effect, 100 is complete control
How it was run: as §1

[3] = system: barnyardgrass (Echinochloa crus-galli); experiment: Test A postemergence; settings: Echinochloa crus-galli, post-emergence, 240 h, postemergence, read-out: Barnyardgrass plant response rating; for pest or weed control at 125 g/ha: 125 g ai/ha, visual injury on 0 to 100 scale (0 no effect, 100 complete control), approx. 10 d; for pest or weed control at 500 g/ha: 500 g ai/ha, 0 to 100 scale, 0 is no effect, 100 is complete control
How it was run: as §1

[4] = system: blackgrass (Alopecurus myosuroides); experiment: Test A postemergence; settings: Alopecurus myosuroides, post-emergence, 240 h, postemergence, read-out: Blackgrass plant response rating; for pest or weed control at 125 g/ha: 125 g ai/ha, visual injury on 0 to 100 scale (0 no effect, 100 complete control), approx. 10 d; for pest or weed control at 500 g/ha: 500 g ai/ha, 0 to 100 scale, 0 is no effect, 100 is complete control
How it was run: as §1

corn (Zea mays) = experiment: Test A postemergence; settings: Zea mays, post-emergence, 240 h, postemergence, read-out: Corn plant response rating; for plant injury at 125 g/ha: 125 g ai/ha, visual injury on 0 to 100 scale (0 no effect, 100 complete control), approx. 10 d; for plant injury at 500 g/ha: 500 g ai/ha, 0 to 100 scale, 0 is no effect, 100 is complete control
How it was run: as §1

[5] = system: giant foxtail (Setaria faberii); experiment: Test A postemergence; settings: Setaria faberi, post-emergence, 240 h, postemergence, read-out: Foxtail, Giant plant response rating; for pest or weed control at 125 g/ha: 125 g ai/ha, visual injury on 0 to 100 scale (0 no effect, 100 complete control), approx. 10 d; for pest or weed control at 500 g/ha: 500 g ai/ha, 0 to 100 scale, 0 is no effect, 100 is complete control
How it was run: as §1

[6] = system: pigweed (Amaranthus retroflexus); experiment: Test A postemergence; settings: Amaranthus retroflexus, post-emergence, 240 h, postemergence, read-out: Pigweed plant response rating; for pest or weed control at 125 g/ha: 125 g ai/ha, visual injury on 0 to 100 scale (0 no effect, 100 complete control), approx. 10 d; for pest or weed control at 500 g/ha: 500 g ai/ha, 0 to 100 scale, 0 is no effect, 100 is complete control
How it was run: as §1

[7] = system: ragweed (common ragweed, Ambrosia elatior); experiment: Test A postemergence; settings: Ambrosia artemisiifolia, post-emergence, 240 h, postemergence, read-out: Ragweed plant response rating; for pest or weed control at 125 g/ha: 125 g ai/ha, visual injury on 0 to 100 scale (0 no effect, 100 complete control), approx. 10 d; for pest or weed control at 500 g/ha: 500 g ai/ha, 0 to 100 scale, 0 is no effect, 100 is complete control
How it was run: as §1

[8] = system: ryegrass, Italian (Italian ryegrass, Lolium multiflorum); experiment: Test A postemergence; settings: Lolium multiflorum, post-emergence, 240 h, postemergence, read-out: Ryegrass, Italian plant response rating; for pest or weed control at 125 g/ha: 125 g ai/ha, visual injury on 0 to 100 scale (0 no effect, 100 complete control), approx. 10 d; for pest or weed control at 500 g/ha: 500 g ai/ha, 0 to 100 scale, 0 is no effect, 100 is complete control
How it was run: as §1

[9] = system: wheat (Triticum aestivum); experiment: Test A postemergence; settings: Triticum aestivum, post-emergence, 240 h, postemergence, read-out: Wheat plant response rating; for plant injury at 125 g/ha: 125 g ai/ha, visual injury on 0 to 100 scale (0 no effect, 100 complete control), approx. 10 d; for plant injury at 500 g/ha: 500 g ai/ha, 0 to 100 scale, 0 is no effect, 100 is complete control
How it was run: as §1

[10] = system: barnyardgrass (Echinochloa crus-galli); experiment: Test B flooded paddy test; settings: Echinochloa crus-galli, 250 g ai/ha, Flood; 0 to 100 scale where 0 is no effect and 100 is complete control; read-out: Barnyardgrass plant response rating
How it was run: (§2)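 2-leaf plants; pots flooded 3 cm over soil; cpd added to paddy water; depth held; greenhouse 13–15 d; visual rating vs controls, 0 = no effect, 100 = complete control.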

[11] = system: ducksalad (Heteranthera limosa); experiment: Test B flooded paddy test; settings: Heteranthera limosa, 250 g ai/ha, Flood; 0 to 100 scale where 0 is no effect and 100 is complete control; read-out: Ducksalad plant response rating
How it was run: as §2

rice (Oryra sativa) = experiment: Test B flooded paddy test; settings: Oryza sativa, 250 g ai/ha, Flood; 0 to 100 scale where 0 is no effect and 100 is complete control; read-out: Rice plant response rating
How it was run: as §2

[12] = system: sedge, umbrella (small-flower umbrella sedge, Cyperus difformis); experiment: Test B flooded paddy test; settings: Cyperus difformis, 250 g ai/ha, Flood; 0 to 100 scale where 0 is no effect and 100 is complete control; read-out: Sedge, Umbrella plant response rating
How it was run: as §2

SMILES | pest or weed control at 125 g/ha [1] [%] | pest or weed control at 500 g/ha [1] [%] | pest or weed control at 125 g/ha [2] [%] | pest or weed control at 500 g/ha [2] [%] | pest or weed control at 125 g/ha (Kochia (Kochia scoparia)) [%] | pest or weed control at 500 g/ha (Kochia (Kochia scoparia)) [%] | pest or weed control at 125 g/ha [3] [%] | pest or weed control at 500 g/ha [3] [%] | pest or weed control at 125 g/ha [4] [%] | pest or weed control at 500 g/ha [4] [%] | plant injury at 125 g/ha (corn (Zea mays)) [%] | plant injury at 500 g/ha (corn (Zea mays)) [%] | pest or weed control at 125 g/ha [5] [%] | pest or weed control at 500 g/ha [5] [%] | pest or weed control at 125 g/ha [6] [%] | pest or weed control at 500 g/ha [6] [%] | pest or weed control at 125 g/ha [7] [%] | pest or weed control at 500 g/ha [7] [%] | pest or weed control at 125 g/ha [8] [%] | pest or weed control at 500 g/ha [8] [%] | also measured
Cc1cc([C@H]2CN(C)C(=O)[C@@H]2C(=O)Nc2ccccc2F)ccc1Br [Compound 1098] | 0 | 0 | 30 | 40 | 20 | 60 | 80 | 90 | 20 | 30 | 0 | 70 | 80 | 90 | 0 | 0 | 0 | 0 | 40 | 50 | plant injury at 125 g/ha [9]: 0%; plant injury at 500 g/ha [9]: 50%; pest or weed control at 250 g/ha [10]: 0%; pest or weed control at 250 g/ha [11]: 90%; pest or weed control at 250 g/ha (rice (Oryra sativa)): 0%; pest or weed control at 250 g/ha [12]: 0%
Cc1cc([C@H]2CN(C)C(=O)[C@@H]2C(=O)Nc2cccc(F)c2F)ccc1Br [Compound 1099] | 20 | 60 | 50 | 60 | 30 | 60 | 70 | 80 | 20 | 40 | 50 | 60 | 80 | 80 | 20 | 50 | 0 | 40 | 40 | 60 | plant injury at 125 g/ha [9]: 20%; plant injury at 500 g/ha [9]: 50%; pest or weed control at 250 g/ha [10]: 0%; pest or weed control at 250 g/ha [11]: 100%; pest or weed control at 250 g/ha (rice (Oryra sativa)): 0%; pest or weed control at 250 g/ha [12]: 0%
